Assay in all cases: DTP human tumour cell line panel, 48 h
In assay [1] the test system is Hs-578T.
The test system of assay [2] is MDA-N.
In assay [3] the test system is DLD-1.
Assay [4] has as its system DMS-114.
The test system of assay [5] is DMS-273.
The test system of assay [6] is SNB-78.
Assay [7] deals with M19-MEL.
In assay [8] the test system is XF498.

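These data come from cells grown in 96-well plates and exposed to compound for 48 hours at five concentrations. GI50 = concentration required for 50% inhibition of growth.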 The source made the active and inactive calls. No stated cut-off is given here; in the data, active = GI50 up to about 1.1 µM and inactive = higher.

By GI50 is commonly meant the concentration giving 50% growth inhibition. `Fc1ccc(C(OCCN2CC3CCC(C2)N3CCCc2ccccc2)c2ccc(F)cc2)cc1`: the figures for the GI50 in assay [1] and in assay [2] were 3.25 µM (inactive) and 3.43 µM (inactive), respectively.

For the compound `Cc1ncc([N+](=O)[O-])n1CCNC(=O)CCCCCn1ccnc1[N+](=O)[O-]`, the GI50 in assay [1] and in assay [2] was > 100 µM (inactive) each time.

For the compound `N=c1sc2ccccc2n1CC[S-].c1ccc2c(c1)sc1[n+]2CCS1`, the GI50 in assay [1] was 42.6 µM (inactive); in assay [2], 37.1 µM (inactive).

Turning to `COc1ccc(-c2oc3c(OC)c(OC)cc(O)c3c(=O)c2OC)cc1`, the GI50 is 58.3 µM (inactive) in assay [1] and > 100 µM (inactive) in assay [2].

Take `O=C(O)Cc1ccc([N+](=O)[O-])cc1[N+](=O)[O-]`: the GI50 in assay [1] is 70.6 µM (inactive); in assay [2] it was > 100 µM (inactive).

On to `Cc1cccc(NC(=O)CSc2nnc(Cc3ccccc3)o2)c1`, for which the GI50 in assay [3], in assay [4], in assay [5] and in assay [6] was > 100 µM (inactive) each time.

With `Brc1ccc(-c2[nH]c3ccccc3c2/N=N\c2ccccc2)cc1`, the GI50 is 20.7 µM (inactive) in assay [1] and 16.6 µM (inactive) in assay [2].

As for `CC1(C)N=c2c(ncn2CCCO)=C(C(N)=O)N1`, the GI50 in assay [1] and in assay [2] was > 100 µM (inactive) in each case.

Regarding `Cc1occ2c1C(=O)CC1C2[C@@H](O)CC2C(C)(C)CCC[C@]12C` (stereo partly specified), the GI50 in assay [3] was > 100 µM (inactive); in assay [4] it was 82.8 µM (inactive); in assay [7], > 100 µM (inactive); in assay [6] it was > 100 µM (inactive); in assay [8], > 100 µM (inactive).

As to `Cc1nc2ccc(NC3OC(CO)C(O)C(O)C3O)cc2c(=O)n1-c1ccccc1` (stereo unspecified), the GI50 in assay [1] and in assay [2] was > 100 µM (inactive) throughout.

On to `C/C(=N/NC(=S)N1CC2CCC(CC2)C1)c1cnccn1`, for which the GI50 is 2.42 µM (inactive) in assay [1] and 0.37 µM (active) in assay [2].

As for `CN(C)CCCc1cccc2[nH]c3c(c12)CN(C)CC3`, the GI50 in assay [1] and in assay [2] was > 100 µM (inactive) in each case.

Take `CC1(C)C2CCC3(C2)CS(=O)(=O)N2OC231` (stereo unspecified): the GI50 in assay [3] is 23.7 µM (inactive); in assay [4], 12.2 µM (inactive); in assay [5] it was 29.4 µM (inactive); in assay [7], 15.7 µM (inactive); in assay [6], 25.5 µM (inactive).

With `COc1cc(/C=C2/SC(c3ccccc3)N(c3ccccc3Cl)C2=O)cc(OC)c1OC` (stereo unspecified), the figures for the GI50 in assay [1] and in assay [2] were 30 µM (inactive) and 28 µM (inactive), respectively.

Take `O=C(CSc1nnc(Cc2ccccc2)o1)Nc1ccc(Cl)cc1Cl`: the GI50 in assay [3], in assay [4], in assay [5], in assay [7] and in assay [6] was > 100 µM (inactive) each time.

Consider `CN(C)c1n/c(=N/c2ccc3ccccc3c2)ss1`, for which the GI50 in assay [3] is 15.4 µM (inactive); in assay [4] it was 9.06 µM (inactive); in assay [5], > 10 µM (inactive); in assay [6], 42.6 µM (inactive).

For the compound `COc1cc2cccc(/N=C\c3ccccc3Cl)c2cc1OC`, the GI50 in assay [3] was > 100 µM (inactive); in assay [4], 35.2 µM (inactive); in assay [7] it was > 100 µM (inactive); in assay [6], > 100 µM (inactive).

On to `COc1cccc(CCNC(=O)Cc2ccccc2CCO)c1`, for which the GI50 in assay [1] is > 100 µM (inactive).

With `COc1c(Sc2c(SCSc3cnc4ccccc4c3Sc3cnc4ccccc4c3OC)cnc3ccccc23)cnc2ccccc12`, the GI50 in assay [1] is 52.2 µM (inactive); in assay [2] it was 77.8 µM (inactive).

On to `S=C1NCCN1C(=S)NC1CCCCC1`, for which the GI50 in assay [1] was 21.2 µM (inactive); in assay [2], 36.9 µM (inactive).

As for `O=c1[nH]nc(-c2ccccc2)n1/N=C/c1ccccc1O`, the GI50 was 29.3 µM (inactive) in assay [1] and > 100 µM (inactive) in assay [2].

`Cc1nc2c(o1)C(=O)c1ccccc1/C2=N/C1CCCCC1N` (stereo unspecified): the values for the GI50 in assay [1] and in assay [2] were 0.644 µM (active) and 0.185 µM (active), respectively.

For `CN(Cc1cccc2ccsc12)/N=C\c1ccc(Cl)cc1`, the results for the GI50 in assay [1] and in assay [2] were > 100 µM (inactive) and 39.2 µM (inactive), respectively.

Consider `N#Cc1nc(C2OC(COC(=O)c3ccccc3)C(OC(=O)c3ccccc3)C2OC(=O)c2ccccc2)oc1N` (stereo unspecified), for which the GI50 in assay [3] is 37.2 µM (inactive); in assay [4], 28.9 µM (inactive); in assay [5], 26.4 µM (inactive); in assay [7] it was 36.7 µM (inactive); in assay [6], 22 µM (inactive).

`COc1cc2c(cc1OC)CCc1cc(OC)c(OC)cc1CC2`: the GI50 in assay [1] and in assay [2] was > 100 µM (inactive) each time.

With `CCO/C=N\c1c(C#N)c(-c2ccc(Cl)cc2)cn1-c1ccc(C)cc1`, the figures for the GI50 in assay [1] and in assay [2] were 95.9 µM (inactive) and > 100 µM (inactive), respectively.

In the case of `O=[N+]([O-])c1ccc2oc(=N/c3ccccc3)/c(=N\c3ccccc3)[nH]c2c1`, the GI50 in assay [1] is 19.7 µM (inactive); in assay [2], 54.5 µM (inactive).

In the case of `CN1N(c2ccccc2)C(=O)C2=NC=C(C#N)C(=N)C21C` (stereo unspecified), the GI50 in assay [2] was > 100 µM (inactive).

With `COC(=O)c1c2c(cc3c1CC1(Cc4ccccc4C1=O)C3)CCC2` (stereo unspecified), the values for the GI50 in assay [1] and in assay [2] were 50 µM (inactive) and 8.55 µM (inactive), respectively.

`COc1ccc2[nH]c3c(c2c1)CCc1ccccc1-3`: the GI50 was 17.4 µM (inactive) in assay [1] and > 100 µM (inactive) in assay [2].

Turning to `c1ccc2c(Cc3[nH]c4ccccc4c3Cc3c[nH]c4ccccc34)c[nH]c2c1`, the GI50 in assay [1] is 1.47 µM (inactive); in assay [2], 2.16 µM (inactive).

As for `O=C1/C(=C/c2ccc(Cl)cc2)CSC/C1=C\c1ccc(Cl)cc1`, the GI50 in assay [2] was 3.06 µM (inactive).

With `N#Cc1c(NC(=S)Nc2ccccc2)sc2c1CCCC2`, the GI50 in assay [1] and in assay [2] was > 100 µM (inactive) throughout.

As for `CCN(CC)c1cccc2c1C1(O)CCC3(CC21)OCCCCO3` (stereo unspecified), the GI50 in assay [3] is 57.1 µM (inactive); in assay [4] it was 94.6 µM (inactive); in assay [5] it was > 100 µM (inactive); in assay [7] it was 91.4 µM (inactive); in assay [6], > 100 µM (inactive).

Consider `CC(C)=CCC[C@@H](C)c1c2nc3ccccc3[nH]c-2c(C)c(=O)c1O`, for which the GI50 in assay [1] was 2.28 µM (inactive); in assay [2] it was 2.09 µM (inactive).

Consider `COc1cc2c(cc1O)NC(=O)[C@@H]1CCCN1C2=O`, for which the GI50 is 24 µM (inactive) in assay [1] and > 100 µM (inactive) in assay [2].

Take `CCOC(=O)c1[nH]c2cc(OC)c(OC)cc2c1CN(C)C`: the GI50 in assay [3], in assay [4] and in assay [6] was > 100 µM (inactive) in each case.

For the compound `O=c1cc(NNc2ccccc2)[nH]c(=S)[nH]1`, the GI50 is > 100 µM (inactive) in assay [1] and 40.6 µM (inactive) in assay [2].

With `C=CCn1c(-c2ccc(/N=N/Nc3ccc(-c4n[nH]c(=S)n4CC=C)cc3)cc2)n[nH]c1=S`, the GI50 in assay [1] was 5.15 µM (inactive).

Take `COc1ccc(CNC(=O)[C@H](Cc2ccc(O)cn2)NC(C)=O)cc1`: the GI50 in assay [1] and in assay [2] was > 100 µM (inactive) each time.

In the case of `CN(C)C1C(O)=C(C(=O)NCN2CCCC2)C(=O)C2(O)C(O)=C3C(=O)c4c(O)cccc4C(C)(O)C3CC12` (stereo unspecified), the GI50 in assay [1] and in assay [2] was > 100 µM (inactive) each time.

For the compound `CNC(=O)C1(C#N)C(c2ccccc2)C(C#N)(C(=O)NC)C1c1ccccc1` (stereo unspecified), the GI50 in assay [1] and in assay [2] was > 100 µM (inactive) in each case.

With `CCCCCCC(=O)OC[n+]1cccc(-c2c(COC(=O)NC(C)C)c(COC(=O)NC(C)C)c3n2CCC3)c1`, the GI50 in assay [1] is > 57.4 µM (inactive); in assay [2] it was > 95.3 µM (inactive).

Take `Cc1c(-c2ccccc2)c(=O)oc2ccc(Cl)cc12`: the GI50 in assay [3] was > 100 µM (inactive); in assay [4], 26.6 µM (inactive); in assay [5], 87.1 µM (inactive); in assay [7], > 100 µM (inactive); in assay [6] it was 26 µM (inactive).

Turning to `CN(C)C1C(CO)OC(n2cnc3c(N)ncnc32)C1O` (stereo unspecified), the GI50 in assay [1] and in assay [2] was > 100 µM (inactive) each time.

With `Cc1cc(OCc2nnc3n2S(=O)(=O)c2ccccc2N3C)ccc1Cl`, the GI50 in assay [1] was 40.8 µM (inactive).

Take `CCCC(CCN)(CCN)[N+](=O)[O-]`: the GI50 in assay [1] and in assay [2] was > 100 µM (inactive) throughout.

For the compound `COc1ccc(C(=O)/C=C/c2ccc(OCC(=O)O)cc2)cc1`, the GI50 in assay [1] was 70.1 µM (inactive); in assay [2], 34.4 µM (inactive).

As to `CCN(CCCl)c1cc(CN(C)C)cc(NC(=O)c2cc(C(=O)Nc3cc(CN(C)C)cc(N(CC)CCCl)c3)n(C)n2)c1`, the figures for the GI50 in assay [1] and in assay [2] were 0.197 µM (active) and 1.22 µM (inactive), respectively.

Regarding `CCCC(=O)Nc1cc(/C=C/C(=O)N2C[C@@H]3C[C@]34C2=CC(=O)c2[nH]cc(C)c24)n(C)c1`, the GI50 in assay [1] is 0.668 µM (active); in assay [2] it was 0.361 µM (active).

For the compound `N#CCc1ccc(C(C#N)/C(CCCC(=O)Nc2cccc([N+](=O)[O-])c2)=N\NC(=O)NN)cc1` (stereo unspecified), the GI50 in assay [3], in assay [4], in assay [5], in assay [7] and in assay [6] was > 100 µM (inactive) in each case.

Take `Cc1cccc(NC(=O)CC(=O)N2N=C(N3c4ccccc4Sc4ccccc43)CC2c2ccccc2)c1` (stereo unspecified): the GI50 in assay [1] was > 100 µM (inactive).

For `Oc1cc(O)cc(-c2nc3cc(F)ccc3s2)c1`, the GI50 in assay [2] was 30.5 µM (inactive).

Consider `Nc1nc2cc3nc(N)c(N)nc3cc2nc1N`, for which the GI50 in assay [1] and in assay [2] was > 100 µM (inactive) throughout.

Turning to `Nc1ccn(C2OC(COP(=O)(O)O)C(O)C2O)c(=O)n1` (stereo unspecified), the GI50 in assay [2] is 37.8 µM (inactive).

In the case of `Cc1cc(-c2nc3cc(O)ccc3s2)ccc1N`, the GI50 was 35.2 µM (inactive) in assay [1] and 29.4 µM (inactive) in assay [2].

Turning to `CCOC(=O)C1(C#N)C(=O)c2cc[n+](CC[n+]3ccc4c(c3)C(=O)C(C#N)(C(=O)OCC)C4=O)cc2C1=O` (stereo unspecified), the GI50 in assay [1] was > 100 µM (inactive); in assay [2], 64.1 µM (inactive).

With `CC(C)N1CCN(c2ccc(OCC3COC(Cn4cncn4)(c4ccc(Cl)cc4Cl)O3)cc2)CC1` (stereo unspecified) [TERCONAZOLE], the GI50 was 12.2 µM (inactive) in assay [1] and 4.86 µM (inactive) in assay [2].

The values are drawn from ChEMBL document CHEMBL1201862, “PubChem BioAssay data set” (2004).
